Laboratory results published in US6569461B1, “Dihydroxy open-acid and salts of HMG-CoA reductase inhibitors” (Merck & Co., Inc., priority 1999, dated 2003).

How the values were obtained:
[1] = human, in vivo
Method: (§1) Intraduodenal administration was accomplished via a nasoduodenal tube placed under fluoroscopic guidance by an experienced gastroenterologist just prior to dosing and removed following the 1-hr postdose measurements.
(§2) All calculations were based on designated sampling times or actual sampling times when they differed from the designated times by more than 10 minutes.

[2] = Plasma total and active HMG-CoA reductase inhibitory activity (enzymatic assay) in open, randomized, four-period crossover study with or without itraconazole; details: human, in vivo
Method: as §1, §2

effect of itraconazole on apparent t1/2 values [1]: essentially unchanged | effect of itraconazole measured as the unchanged drug ([1]; male): 1.5 fold | AUC, Active Inhibitors [2]: 54.1 ± 28.5 ng eq·hr/mL | Cmax, Active Inhibitors [2]: 5.7 ± 3.0 ng eq/mL | change by itraconazole pretreatment in AUC and Cmax of HMG-CoA reductase inhibitory activity (total or active) ([2]; male): 1.3-1.5 fold
Structure (SMILES): CCC(C)(C)C(=O)O[C@H]1C[C@@H](C)C=C2C=C[C@H](C)[C@H](CC[C@@H](O)C[C@@H](O)CC(=O)O)[C@H]21 [SVA, dihydroxy open acid simvastatin]
